In experiment [1] the target is Receptor-type tyrosine-protein phosphatase F (Homo sapiens, UniProt P10586). As to the kind of experiment: Inhibition of human LAR as hydrolysis of pNPP after 2 mins.
Experiment [2] deals with Tyrosine-protein phosphatase non-receptor type 6 (Homo sapiens, UniProt P29350). As to the kind of experiment: Inhibition of human SHP1 as hydrolysis of pNPP after 2 mins.
In experiment [3] the target is T1, Tyrosine-protein phosphatase non-receptor type 1 (Homo sapiens, UniProt P18031).
T1 sequence (P18031 whole entry): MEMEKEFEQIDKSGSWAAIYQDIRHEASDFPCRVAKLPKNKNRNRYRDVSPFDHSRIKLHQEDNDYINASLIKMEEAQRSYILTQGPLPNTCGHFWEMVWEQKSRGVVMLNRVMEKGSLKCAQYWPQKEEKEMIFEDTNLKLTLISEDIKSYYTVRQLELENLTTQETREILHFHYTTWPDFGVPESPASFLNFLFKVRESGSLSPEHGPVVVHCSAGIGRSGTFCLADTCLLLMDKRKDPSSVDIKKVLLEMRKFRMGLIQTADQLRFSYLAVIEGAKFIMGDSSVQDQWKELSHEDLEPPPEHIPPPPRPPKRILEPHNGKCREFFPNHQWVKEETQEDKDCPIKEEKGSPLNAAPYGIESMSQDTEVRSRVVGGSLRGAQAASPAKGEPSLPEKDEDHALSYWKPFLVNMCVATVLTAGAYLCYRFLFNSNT
The experiment in a line: Inhibition of recombinant human PTP1B catalytic domain assessed as hydrolysis of pNPP after 2 mins.

The target of experiment [4] is T2, Tyrosine-protein phosphatase non-receptor type 11 (Homo sapiens, UniProt Q06124).
T2 sequence (Q06124 whole entry): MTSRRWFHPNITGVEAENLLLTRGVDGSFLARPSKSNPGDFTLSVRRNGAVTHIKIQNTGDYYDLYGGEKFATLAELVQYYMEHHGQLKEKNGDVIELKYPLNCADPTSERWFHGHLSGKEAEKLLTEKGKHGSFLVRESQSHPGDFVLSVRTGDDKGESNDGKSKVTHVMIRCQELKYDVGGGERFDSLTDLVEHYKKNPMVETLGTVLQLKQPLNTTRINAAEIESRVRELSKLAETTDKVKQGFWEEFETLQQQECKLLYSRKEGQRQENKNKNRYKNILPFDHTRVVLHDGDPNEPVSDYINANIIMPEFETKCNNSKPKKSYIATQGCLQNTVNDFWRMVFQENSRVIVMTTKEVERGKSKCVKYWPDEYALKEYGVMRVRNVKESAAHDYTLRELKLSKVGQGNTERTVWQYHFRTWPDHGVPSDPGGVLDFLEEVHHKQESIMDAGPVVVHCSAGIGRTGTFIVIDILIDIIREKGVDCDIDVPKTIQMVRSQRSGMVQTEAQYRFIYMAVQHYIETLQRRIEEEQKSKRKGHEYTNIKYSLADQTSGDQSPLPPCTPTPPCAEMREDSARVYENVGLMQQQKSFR
As to the kind of experiment: Inhibition of human SHP2 as hydrolysis of pNPP after 2 mins.

Experiment [5] concerns the target T3, Tyrosine-protein phosphatase non-receptor type 2 (Homo sapiens, UniProt P17706).
T3 sequence (P17706 whole entry): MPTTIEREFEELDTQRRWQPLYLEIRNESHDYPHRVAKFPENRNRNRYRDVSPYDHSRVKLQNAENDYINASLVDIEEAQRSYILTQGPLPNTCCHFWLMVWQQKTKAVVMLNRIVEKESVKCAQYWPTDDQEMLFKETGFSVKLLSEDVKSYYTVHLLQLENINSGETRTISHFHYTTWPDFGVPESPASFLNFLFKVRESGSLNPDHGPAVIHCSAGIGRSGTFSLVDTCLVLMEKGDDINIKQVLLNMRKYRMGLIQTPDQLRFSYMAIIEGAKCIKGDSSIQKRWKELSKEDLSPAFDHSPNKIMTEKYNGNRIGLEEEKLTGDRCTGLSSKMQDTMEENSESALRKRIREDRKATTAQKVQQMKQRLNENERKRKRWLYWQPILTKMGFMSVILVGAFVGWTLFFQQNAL
The experiment in a line: Inhibition of human TCPTP as hydrolysis of pNPP after 2 mins.

The structures appear in SMILES notation.

Tyrosine-protein phosphatase non-receptor type 6, sequence (P29350 whole entry): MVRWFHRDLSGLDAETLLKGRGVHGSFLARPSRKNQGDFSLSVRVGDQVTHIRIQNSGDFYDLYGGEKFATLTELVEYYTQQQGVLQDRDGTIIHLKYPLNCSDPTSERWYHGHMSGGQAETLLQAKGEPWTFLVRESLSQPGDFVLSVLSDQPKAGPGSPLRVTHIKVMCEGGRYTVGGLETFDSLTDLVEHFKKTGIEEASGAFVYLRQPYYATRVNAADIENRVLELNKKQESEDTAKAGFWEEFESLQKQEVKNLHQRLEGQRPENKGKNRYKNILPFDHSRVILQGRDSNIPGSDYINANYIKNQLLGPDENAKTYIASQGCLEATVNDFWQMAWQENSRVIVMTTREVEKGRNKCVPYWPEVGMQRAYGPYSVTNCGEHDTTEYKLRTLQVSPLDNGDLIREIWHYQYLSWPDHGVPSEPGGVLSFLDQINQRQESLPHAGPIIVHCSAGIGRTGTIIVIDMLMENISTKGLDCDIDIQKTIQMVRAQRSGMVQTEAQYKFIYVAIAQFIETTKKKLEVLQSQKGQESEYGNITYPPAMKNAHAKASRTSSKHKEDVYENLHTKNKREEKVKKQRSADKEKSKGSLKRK
Receptor-type tyrosine-protein phosphatase F, sequence (P10586 whole entry): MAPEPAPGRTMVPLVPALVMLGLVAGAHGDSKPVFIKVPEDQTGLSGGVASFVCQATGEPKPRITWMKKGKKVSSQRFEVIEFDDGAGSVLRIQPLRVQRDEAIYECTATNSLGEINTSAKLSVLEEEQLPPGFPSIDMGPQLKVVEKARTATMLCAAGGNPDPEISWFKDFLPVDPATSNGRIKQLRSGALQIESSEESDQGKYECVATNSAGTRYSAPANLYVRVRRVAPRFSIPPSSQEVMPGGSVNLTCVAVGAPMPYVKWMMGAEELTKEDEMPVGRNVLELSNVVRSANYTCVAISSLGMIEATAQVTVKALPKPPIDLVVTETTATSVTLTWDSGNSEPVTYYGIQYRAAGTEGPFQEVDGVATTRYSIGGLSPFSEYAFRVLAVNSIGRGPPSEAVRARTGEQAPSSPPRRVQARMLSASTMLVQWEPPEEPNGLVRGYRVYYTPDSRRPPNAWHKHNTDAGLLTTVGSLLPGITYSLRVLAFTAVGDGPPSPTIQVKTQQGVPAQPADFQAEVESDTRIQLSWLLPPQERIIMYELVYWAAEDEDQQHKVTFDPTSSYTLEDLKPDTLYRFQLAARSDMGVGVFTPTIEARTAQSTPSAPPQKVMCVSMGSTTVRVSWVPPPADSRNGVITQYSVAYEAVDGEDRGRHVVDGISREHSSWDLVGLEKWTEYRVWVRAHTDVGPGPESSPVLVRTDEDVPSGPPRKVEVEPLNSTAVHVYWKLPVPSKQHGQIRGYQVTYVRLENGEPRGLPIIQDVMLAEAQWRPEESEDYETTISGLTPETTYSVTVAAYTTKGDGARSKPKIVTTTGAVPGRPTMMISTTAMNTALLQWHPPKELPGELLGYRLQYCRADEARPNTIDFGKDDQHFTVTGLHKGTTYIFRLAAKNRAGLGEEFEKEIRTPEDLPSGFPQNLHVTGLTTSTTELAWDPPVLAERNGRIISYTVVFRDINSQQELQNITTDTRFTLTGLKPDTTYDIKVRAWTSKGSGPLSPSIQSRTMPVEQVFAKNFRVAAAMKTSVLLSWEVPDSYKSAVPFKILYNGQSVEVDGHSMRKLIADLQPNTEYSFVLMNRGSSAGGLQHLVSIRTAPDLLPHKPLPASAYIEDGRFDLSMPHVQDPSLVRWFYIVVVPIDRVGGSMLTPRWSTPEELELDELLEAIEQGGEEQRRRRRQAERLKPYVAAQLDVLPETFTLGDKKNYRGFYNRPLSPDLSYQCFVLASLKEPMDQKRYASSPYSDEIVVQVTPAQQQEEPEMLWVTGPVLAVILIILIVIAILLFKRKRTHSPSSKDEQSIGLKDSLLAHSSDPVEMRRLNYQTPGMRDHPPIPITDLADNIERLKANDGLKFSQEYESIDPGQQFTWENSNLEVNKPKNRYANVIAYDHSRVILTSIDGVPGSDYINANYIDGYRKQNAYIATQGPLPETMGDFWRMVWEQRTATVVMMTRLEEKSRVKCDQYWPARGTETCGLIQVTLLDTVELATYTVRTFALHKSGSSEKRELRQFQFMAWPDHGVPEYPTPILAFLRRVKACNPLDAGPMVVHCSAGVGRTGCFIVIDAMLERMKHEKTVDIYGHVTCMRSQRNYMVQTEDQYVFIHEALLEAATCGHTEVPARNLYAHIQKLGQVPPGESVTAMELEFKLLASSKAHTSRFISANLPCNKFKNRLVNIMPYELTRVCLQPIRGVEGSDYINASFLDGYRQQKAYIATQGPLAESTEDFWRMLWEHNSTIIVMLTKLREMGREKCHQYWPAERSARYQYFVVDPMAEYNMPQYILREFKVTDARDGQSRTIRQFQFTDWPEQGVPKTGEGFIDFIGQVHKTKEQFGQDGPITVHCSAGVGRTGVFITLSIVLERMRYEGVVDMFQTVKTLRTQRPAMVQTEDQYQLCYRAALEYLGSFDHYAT

As a reminder, the IC50 is the concentration at which inhibition is half-maximal. In the case of `Oc1ccc(-c2cccc(-c3noc(Cc4c[nH]c5ccccc45)n3)c2)cc1`, the IC50 in experiment [1] is more than 120 µM; in experiment [2], more than 120 µM; in experiment [3], 21.9 µM; in experiment [4], more than 120 µM; in experiment [5], more than 120 µM.

As for `CCc1ccc(-c2ccc(-c3noc(Cc4c[nH]c5ccccc45)n3)s2)cc1`, the IC50 in experiment [1] was more than 120 µM; in experiment [2] it was more than 120 µM; in experiment [3], 13.1 µM; in experiment [4], more than 120 µM; in experiment [5] it was more than 120 µM.

As for `CCCCc1ccc(-c2ccc(-c3noc(Cc4c[nH]c5ccccc45)n3)s2)cc1`, the half-maximal inhibitory concentration (IC50) was more than 120 µM in experiment [1]; more than 120 µM in experiment [2]; 8.96 µM in experiment [3]; more than 120 µM in experiment [4]; more than 120 µM in experiment [5].

On to `Brc1cccc(-c2noc(Cc3c[nH]c4ccccc34)n2)n1`, for which the concentration for half-maximal inhibition (IC50) in experiment [1], in experiment [2], in experiment [3], in experiment [4] and in experiment [5] was more than 120 µM in each case.

Consider `CCCOc1ccc(-c2ccc(-c3noc(Cc4c[nH]c5ccccc45)n3)s2)cc1`, for which the half-maximal inhibitory concentration (IC50) in experiment [1] was more than 120 µM; in experiment [2] it was more than 120 µM; in experiment [3], 13.7 µM; in experiment [4], more than 120 µM; in experiment [5] it was more than 120 µM.

In the case of `Cc1ccccc1-c1cccc(-c2noc(Cc3c[nH]c4ccccc34)n2)n1`, the IC50 in experiment [1] is more than 120 µM; in experiment [2] it was more than 120 µM; in experiment [3], 26.1 µM; in experiment [4], more than 120 µM; in experiment [5], more than 120 µM.

On to `CCCCc1ccc(-c2cccc(-c3noc(Cc4c[nH]c5ccccc45)n3)c2)cc1`, for which the 50% inhibitory concentration (IC50) in experiment [1] is more than 120 µM; in experiment [2], more than 120 µM; in experiment [3], 8.8 µM; in experiment [4], more than 120 µM; in experiment [5], more than 120 µM.

With `Brc1ccc(-c2noc(Cc3c[nH]c4ccccc34)n2)s1`, the 50% inhibitory concentration (IC50) in experiment [1] was more than 120 µM; in experiment [2], more than 120 µM; in experiment [3] it was 14.1 µM; in experiment [4] it was more than 120 µM; in experiment [5], more than 120 µM.

With `CC1(C)CC[C@]2(C(=O)O)CC[C@]3(C)C(=CC[C@@H]4[C@@]5(C)CC[C@H](O)C(C)(C)[C@@H]5CC[C@]43C)[C@@H]2C1` [OLEANOLIC_ACID], the IC50 in experiment [1] and in experiment [4] was more than 120 µM in each case.

On to `COC(=O)CCCOc1ccc(-c2cccc(-c3noc(Cc4c[nH]c5ccccc45)n3)c2)cc1`, for which the IC50 in experiment [1], in experiment [2], in experiment [3], in experiment [4] and in experiment [5] was more than 120 µM each time.

Turning to `CCCc1ccc(-c2ccc(-c3noc(Cc4c[nH]c5ccccc45)n3)s2)cc1`, the IC50 is more than 120 µM in experiment [1]; more than 120 µM in experiment [2]; 12.5 µM in experiment [3]; more than 120 µM in experiment [4]; more than 120 µM in experiment [5].

As for `CCOc1ccc(-c2ccc(-c3noc(Cc4c[nH]c5ccccc45)n3)s2)cc1`, the IC50 in experiment [1] is more than 120 µM; in experiment [2], more than 120 µM; in experiment [3] it was 17.3 µM; in experiment [4] it was more than 120 µM; in experiment [5], more than 120 µM.

For the compound `Cc1cccc(-c2ccc(-c3noc(Cc4c[nH]c5ccccc45)n3)s2)c1`, the IC50 in experiment [1], in experiment [2], in experiment [3], in experiment [4] and in experiment [5] was more than 120 µM throughout.

Regarding `Cc1cccc(-c2cccc(-c3noc(Cc4c[nH]c5ccccc45)n3)n2)c1`, the IC50 in experiment [1] is more than 120 µM; in experiment [2] it was more than 120 µM; in experiment [3], 21.7 µM; in experiment [4], more than 120 µM; in experiment [5] it was more than 120 µM.

For the compound `CCCOc1ccc(-c2cccc(-c3noc(Cc4c[nH]c5ccccc45)n3)n2)cc1`, the IC50 in experiment [1] is more than 120 µM; in experiment [2], more than 120 µM; in experiment [3] it was 9.66 µM; in experiment [4] it was more than 120 µM; in experiment [5], more than 120 µM.

For `CCOc1ccc(-c2cccc(-c3noc(Cc4c[nH]c5ccccc45)n3)n2)cc1`, the IC50 in experiment [1] is more than 120 µM; in experiment [2], more than 120 µM; in experiment [3], 31.5 µM; in experiment [4] it was more than 120 µM; in experiment [5] it was more than 120 µM.

Consider `CCCc1ccc(-c2cccc(-c3noc(Cc4c[nH]c5ccccc45)n3)c2)cc1`, for which the IC50 in experiment [1], in experiment [2], in experiment [3], in experiment [4] and in experiment [5] was more than 120 µM in each case.

With `CCOc1ccc(-c2cccc(-c3noc(Cc4c[nH]c5ccccc45)n3)c2)cc1`, the IC50 is more than 120 µM in experiment [1]; more than 120 µM in experiment [2]; 15.9 µM in experiment [3]; more than 120 µM in experiment [4]; more than 120 µM in experiment [5].

In the case of `Cc1ccccc1-c1cccc(-c2noc(Cc3c[nH]c4ccccc34)n2)c1`, the IC50 in experiment [1] was more than 120 µM; in experiment [2] it was more than 120 µM; in experiment [3], 24.4 µM; in experiment [4], more than 120 µM; in experiment [5], more than 120 µM.

With `CCCOc1ccc(-c2cccc(-c3noc(Cc4c[nH]c5ccccc45)n3)c2)cc1`, the IC50 in experiment [1] is more than 120 µM; in experiment [2], more than 120 µM; in experiment [3], 18.4 µM; in experiment [4], more than 120 µM; in experiment [5], more than 120 µM.

Turning to `Nc1ccc(-c2cccc(-c3noc(Cc4c[nH]c5ccccc45)n3)c2)cc1`, the IC50 in experiment [1], in experiment [2], in experiment [3], in experiment [4] and in experiment [5] was more than 120 µM each time.

Take `COC(=O)CCCOc1ccc(-c2ccc(-c3noc(Cc4c[nH]c5ccccc45)n3)s2)cc1`: the IC50 in experiment [1], in experiment [2], in experiment [3], in experiment [4] and in experiment [5] was more than 120 µM each time.

On to `Brc1cccc(-c2noc(Cc3c[nH]c4ccccc34)n2)c1`, for which the concentration for half-maximal inhibition (IC50) in experiment [1] was more than 120 µM; in experiment [2] it was more than 120 µM; in experiment [3], 19.7 µM; in experiment [4], more than 120 µM; in experiment [5], more than 120 µM.

With `Cc1cccc(-c2cccc(-c3noc(Cc4c[nH]c5ccccc45)n3)c2)c1`, the half-maximal inhibitory concentration (IC50) in experiment [1] is more than 120 µM; in experiment [2] it was more than 120 µM; in experiment [3], 15.8 µM; in experiment [4] it was more than 120 µM; in experiment [5], more than 120 µM.

With `Nc1ccc(-c2ccc(-c3noc(Cc4c[nH]c5ccccc45)n3)s2)cc1`, the IC50 in experiment [1], in experiment [2], in experiment [3], in experiment [4] and in experiment [5] was more than 120 µM each time.

For `Cc1ccccc1-c1ccc(-c2noc(Cc3c[nH]c4ccccc34)n2)s1`, the IC50 in experiment [1] is more than 120 µM; in experiment [2], more than 120 µM; in experiment [3], 16.8 µM; in experiment [4], more than 120 µM; in experiment [5], more than 120 µM.

Take `CCCCc1ccc(-c2cccc(-c3noc(Cc4c[nH]c5ccccc45)n3)n2)cc1`: the IC50 in experiment [1] is more than 120 µM; in experiment [2], more than 120 µM; in experiment [3] it was 9.66 µM; in experiment [4], more than 120 µM; in experiment [5], more than 120 µM.

These data come from ChEMBL document CHEMBL3758136, “Design, synthesis and in vitro activity of phidianidine B derivatives as novel PTP1B inhibitors with specific selectivity” (Bioorg Med Chem Lett, 2016).
